Data: paper PMC12059162 (Scientific Reports, 2025)
Marks after values point to notes of the source that are not given here. Each block holds one compound with its values, some of them ahead of it.

Legend:
phospho-p53 (S15) = assay: Human Apoptosis Array in PANC-1 cells; conditions: PANC-1, 0.5 µM, 72 h
MIA PaCa-2 cells [1] = assay: Cell cycle analysis (PI, flow cytometry); conditions: MIA PaCa-2, 0.5 µM; for Effect on cell cycle: 48 h
HSP60 = assay: Human Apoptosis Array in PANC-1 cells; conditions: PANC-1, 0.5 µM, 72 h
TRAIL = assay: qPCR apoptotic gene expression in PANC-1 cells; conditions: PANC-1, 25 µM
PANC-1 cells [2] = assay: xCELLigence SP impedimetric cell viability; conditions: for IC50 / viability at 0.5 µM / viability at 10 µM / viability at 25 µM: Homo sapiens, PANC-1, 72 h; for IC50: read-out: IC50 values (μM) 72 hours; for viability at 0.5 µM: read-out: Viability (%) after 72-h treatment, PANC-1, 0.5 μM, 72 h, mean ± SD (n = 3); for viability at 10 µM: read-out: Viability (%) after 72-h treatment, PANC-1, 10 μM, 72 h, mean ± SD (n = 3); for viability at 25 µM: read-out: Viability (%) after 72-h treatment, PANC-1, 25 μM, 72 h, mean ± SD (n = 3)
DR4 [3] = assay: Human Apoptosis Array in PANC-1 cells; conditions: PANC-1, 0.5 µM, 72 h
PANC-1 cells [4] = assay: Annexin-V/7AAD early and late apoptosis flow cytometry; type: cell-based, human; conditions: PANC-1, 0.5 µM, 72 h; for Ratio of late apoptotic cells: control 0.9%; for Ratio of AnnexinV+ and 7AAD- (early apoptotic) cells: control 21.1%
Experimental: For apoptosis measurements, Annexin-V positive/7AAD (7-Aminoactinomycin D) negative, early apoptotic and Annexin-V/ 7AAD double positive, late apoptotic cells were differentiated using a BD FACSCalibur (BD FACSCalibur, Becton-Dickinson, San Jose, CA, USA) flow cytometer[49],[50]. […] After 24, 48, and 72 h treatment, cells were harvested with 300 µL TrypLE (Sigma Ltd. St. Louis, MO, USA). Fresh cell culture medium was then added to stop the effect of TrypLE and the harvested cells were centrifuged for 5 min (300 g). Then, the supernatant was removed, and cells were resuspended in 300 µL of Annexin binding buffer (Sony Biotechnology, Weybridge, UK). For labelling, 3–3 µL of Annexin-V-FITC (Sony Biotechnology, Weybridge, UK) and 7AAD (Sony Biotechnology, Weybridge, UK) were added, followed by 10 min incubation at room temperature in the dark. For flow cytometric analysis (BD FACSCalibur, Becton–Dickinson, San Jose, CA, USA), a minimum of 10^4 cells/sample was measured. Annexin-V was detected using the FL-1 channel (530/30), and 7AAD was detected using the FL-3 channel (670 LP). In each treatment group, 3 parallel samples were analysed. The results were evaluated using Flowing Software 2.5.1 (Turku Centre of Biotechnology, Turku, Finland).

DR5 [5] = assay: qPCR apoptotic gene expression in PANC-1 cells; conditions: PANC-1, 25 µM
[6] = alamarBlue cell viability, cardiotoxicity; conditions: mouse, HL-1 cardiomyocytes
MIA PaCa-2 cells [7] = assay: alamarBlue cell viability; conditions: Homo sapiens, MIA PaCa-2, 72 h; for viability at 0.5 µM / viability at 10 µM / viability at 25 µM: read-out: Viability (%) after 72-h treatment
COLO-205 cells = assay: alamarBlue cell viability; conditions: Homo sapiens, COLO 205, 72 h; for viability at 0.5 µM / viability at 10 µM / viability at 25 µM: read-out: Viability (%) after 72-h treatment
[8] = alamarBlue cell viability, healthy cells; conditions: human, NHDF cells
PANC-1 cells [9] = assay: Cell cycle analysis (PI, flow cytometry); conditions: for Effect on cell cycle: PANC-1, 0.5 µM, 48 h; for Increase in cell number in the G2/M phase: PANC-1, 10 and 25 µM, 72 h
p53 = assay: qPCR apoptotic gene expression in PANC-1 cells; conditions: PANC-1, 25 µM, normalised to DMSO control
pro-caspase-3 = assay: Human Apoptosis Array in PANC-1 cells; conditions: PANC-1, 0.5 µM, 72 h
cIAP-1 = assay: Human Apoptosis Array in PANC-1 cells; conditions: PANC-1, 0.5 µM, 72 h
PANC-1 cells [10] = assay: Holographic microscopy morphometry (HoloMonitor M4); type: cell-based, human; conditions: 72 h
Experimental: To follow the morphometric changes, a holographic transmission microscope (HoloMonitor M4; Phase Holographic Imaging AB, Lund, Sweden) was used, which uses a laser to produce 3D images of the cells[51],[52]. This […] imaging technique allows us to monitor cell morphological changes in real-time. First, the cells were seeded at a concentration of 3.5 × 10^5 cells/flask/4000 µL cell culture medium. […] At least 5 images were taken from each culture dish, taking care to assess different fields of view. These images were evaluated using the microscope software (Hstudio M4). We assessed the average area and the average optical thickness of the cells.

phospho-p53 (S46) = assay: Human Apoptosis Array in PANC-1 cells; conditions: PANC-1, 0.5 µM, 72 h
EBC-1 cells = assay: alamarBlue cell viability; conditions: for viability at 0.5 µM: read-out: Viability (%) after 72-h treatment, EBC-1, 0.5 μM, 72 h, mean ± SD (n = 3); for viability at 10 µM: read-out: Viability (%) after 72-h treatment, EBC-1, 10 μM, 72 h, mean ± SD (n = 3); for viability at 25 µM: read-out: Viability (%) after 72-h treatment, EBC-1, 25 μM, 72 h, mean ± SD (n = 3)
A2058 cells = assay: alamarBlue cell viability; conditions: Homo sapiens, A2058, 72 h; for IC50: read-out: IC50 values (μM) 72 hours; for viability at 0.5 µM / viability at 10 µM / viability at 25 µM: read-out: Viability (%) after 72-h treatment
DR5 [11] = assay: Human Apoptosis Array in PANC-1 cells; conditions: PANC-1, 0.5 µM, 72 h
DR4 [12] = assay: qPCR apoptotic gene expression in PANC-1 cells; conditions: PANC-1, 25 µM
cytochrome-c = assay: Human Apoptosis Array in PANC-1 cells; conditions: PANC-1, 0.5 µM, 72 h
[13] = read-out: IC50 values (μM) 72 hours
[14] = 24 h, normalised to DMSO control

IC50 (PANC-1 cells [2]): 0.35 µM
IC50 (MIA PaCa-2 cells [7]; [13]): 0.67 µM
IC50 (COLO-205 cells; [13]): 0.25 µM
SMILES: O=C1C2=C(CCN(Cc3ccccc3)C2)N2CCN=C2N1Cc1ccc(F)cc1 [TBP-134]
phospho-p53 (S15) protein level (phospho-p53 (S15)): decrease
Effect on cell cycle (MIA PaCa-2 cells [1]): strong G2/M phase arrest
subG1 phase (percentage of cells) (MIA PaCa-2 cells [1]; 72 h, control 5.6%): 20.8%
HSP60 protein level (HSP60): significant increase
TRAIL induction (mRNA) (TRAIL; any of the time points (3-48 h)): not detected
viability at 0.5 µM (PANC-1 cells [2]): 13.4%
viability at 10 µM (PANC-1 cells [2]): 7.4 ± 0.3%
viability at 25 µM (PANC-1 cells [2]): 6.1 ± 0.9%
Viability (%) after 72-h treatment (PANC-1 cells [2]; PANC-1, 0.5 μM, 72 h, mean ± SD (n = 3), 0.5 µM): 13.2 ± 1.4^z %
DR4 protein level (DR4 [3]): significant increase
Early apoptotic cells, fold increase (PANC-1 cells [4]): 2.1 fold
Late apoptotic cells, fold increase (PANC-1 cells [4]): 4.2 fold
Ratio of late apoptotic cells (PANC-1 cells [4]): 3.8%
Ratio of AnnexinV+ and 7AAD- (early apoptotic) cells (PANC-1 cells [4]): 43.8%
DR5 mRNA expression (DR5 [5]; 12 h, normalised to DMSO control): 2.3 fold
viability at 72 h, 0.5 µM [6]: 89.9 ± 5.2%
viability at 72 h, 10 µM [6]: 88.4 ± 5%
viability at 72 h, 25 µM [6]: 82 ± 2.3%
viability at 0.5 µM (MIA PaCa-2 cells [7]): 48.9 ± 2.9%
viability at 10 µM (MIA PaCa-2 cells [7]): 65 ± 4.9%
viability at 25 µM (MIA PaCa-2 cells [7]): 59 ± 5.5%
viability at 0.5 µM (COLO-205 cells): 45.5 ± 1.3%
viability at 10 µM (COLO-205 cells): 48.8 ± 1.6%
viability at 25 µM (COLO-205 cells): 54.3 ± 0.6%
viability at 72 h, 0.5 µM [8]: 61.5 ± 0.5%
viability at 72 h, 10 µM [8]: 46.2 ± 3.4%
viability at 72 h, 25 µM [8]: 48.3 ± 1.2%
Effect on cell cycle (PANC-1 cells [9]): strong G2/M phase arrest
Increase in cell number in the G2/M phase (PANC-1 cells [9]): 2.2 fold
p53 mRNA expression (p53; 48 h): 3.7 fold
pro-caspase-3 protein level (pro-caspase-3): decrease
cIAP-1 protein level (cIAP-1): undetectable
Average cell area (PANC-1 cells [10]; PANC-1, 25 µM): 376 µm^2
Average cell area, fold decrease vs DMSO (PANC-1 cells [10]; PANC-1, 25 µM): 1.7 fold
phospho-p53 (S46) protein level (phospho-p53 (S46)): decrease
Viability (%) after 72-h treatment (EBC-1 cells; EBC-1, 0.5 μM, 72 h, mean ± SD (n = 3), 0.5 µM): 52.3 ± 1.5^z %
viability at 0.5 µM (EBC-1 cells; Homo sapiens, EBC-1, 72 h): 52.2%
viability at 10 µM (EBC-1 cells; Homo sapiens, EBC-1, 72 h): 51.7 ± 0.7%
viability at 25 µM (EBC-1 cells; Homo sapiens, EBC-1, 72 h): 50.5 ± 2%
IC50 (A2058 cells): 0.34 µM
viability at 0.5 µM (A2058 cells): 51.4 ± 2.4%
viability at 10 µM (A2058 cells): 47.7 ± 3.5%
viability at 25 µM (A2058 cells): 44.7 ± 2.8%

IC50 (PANC-1 cells [2]): 1.8 µM
SMILES: O=C1C2=C(CCN(Cc3ccccc3)C2)N2CCN=C2N1Cc1cccc(F)c1 [TBP-135]
phospho-p53 (S15) protein level (phospho-p53 (S15)): significantly increased
Effect on cell cycle (MIA PaCa-2 cells [1]): did not affect
HSP60 protein level (HSP60): significantly increased
TRAIL mRNA expression (TRAIL; 3 h, normalised to DMSO control): 2.4 fold
viability at 0.5 µM (PANC-1 cells [2]): 106 ± 2.4%
viability at 10 µM (PANC-1 cells [2]): 8.8 ± 0.1%
viability at 25 µM (PANC-1 cells [2]): 9.2 ± 4.6%
DR4 protein level (DR4 [3]): significantly increased
Early apoptotic cells, fold increase (PANC-1 cells [4]): 2.5 fold
Late apoptotic cells, fold increase (PANC-1 cells [4]): 3.5 fold
Ratio of late apoptotic cells (PANC-1 cells [4]): 3.2%
Ratio of AnnexinV+ and 7AAD- (early apoptotic) cells (PANC-1 cells [4]): 53.5%
DR5 mRNA expression (DR5 [5]; 3 h): significantly upregulated
DR5 mRNA expression (DR5 [5]; [14]): 5.9 fold
viability at 72 h, 0.5 µM [6]: 98.8 ± 1.5%
viability at 72 h, 10 µM [6]: 86.8 ± 3.2%
viability at 72 h, 25 µM [6]: 88.3 ± 2.8%
viability at 0.5 µM (MIA PaCa-2 cells [7]): 63.5 ± 2.6%
viability at 10 µM (MIA PaCa-2 cells [7]): 62.7 ± 7.8%
viability at 25 µM (MIA PaCa-2 cells [7]): 65.5 ± 7.9%
viability at 0.5 µM (COLO-205 cells): 74.7 ± 0.6%
viability at 10 µM (COLO-205 cells): 52.6 ± 4.1%
viability at 25 µM (COLO-205 cells): 54.2 ± 3.2%
viability at 72 h, 0.37 µM [8]: 111 ± 2.9%
viability at 72 h, 8.6 µM [8]: 65.9 ± 1.8%
viability at 72 h, 25 µM [8]: 71.4 ± 12.3%
Effect on cell cycle (PANC-1 cells [9]): G1 phase block
Increase in cell number in the G2/M phase (PANC-1 cells [9]): 2.2 fold
p53 mRNA expression (p53; 24 h): 2.9 fold
DR5 protein level (DR5 [11]): significantly increased
pro-caspase-3 protein level (pro-caspase-3): significantly increased
cIAP-1 protein level (cIAP-1): significantly increased
Average cell area, fold decrease vs DMSO (PANC-1 cells [10]; PANC-1, 0.5 µM): 1.9 fold
Average optical thickness, fold increase vs DMSO (PANC-1 cells [10]; PANC-1, 0.5 µM): 4.1 fold
Average optical thickness (PANC-1 cells [10]; PANC-1, 0.5 µM, DMSO 1.45 μm): 5.9 μm
Average cell area (PANC-1 cells [10]; PANC-1, 0.5 µM, DMSO 630 µm^2): 338.5 µm^2
phospho-p53 (S46) protein level (phospho-p53 (S46)): significantly increased
DR4 mRNA expression (DR4 [12]; 3 h): significantly upregulated
DR4 mRNA expression (DR4 [12]; [14]): 3.7 fold
IC50 (EBC-1 cells; Homo sapiens, EBC-1, 72 h, read-out: IC50 values (μM) 72 hours): 2.5 µM
viability at 0.5 µM (EBC-1 cells; Homo sapiens, EBC-1, 72 h): 66.6 ± 4.1%
viability at 10 µM (EBC-1 cells; Homo sapiens, EBC-1, 72 h): 71.8 ± 31.1%
viability at 25 µM (EBC-1 cells; Homo sapiens, EBC-1, 72 h): 48 ± 4%
IC50 (A2058 cells): 1.75 µM
viability at 0.5 µM (A2058 cells): 74.9 ± 1.1%
viability at 10 µM (A2058 cells): 47 ± 4.7%
viability at 25 µM (A2058 cells): 46.8 ± 2.9%
cytochrome-c protein level (cytochrome-c): significantly decreased
